# Results from patent publication US11019818B2, “Herbicidal 3-substituted lactams” (FMC Corporation, priority 2017, dated 2021).
# Assays:
# Format in all cases: in vivo
# [1] = tested on: barnyardgrass (Echinochloa crus-galli); experiment: Test B flooded paddy test, barnyardgrass; settings: Flood, 250 g ai/ha; applied to paddy water at 2-leaf stage; visual rating after 13 to 15 d; scale 0 to 100, 0 is no effect, 100 is complete control
# How it was run: (§1)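 Plants at the 2-leaf stage were flooded to 3 cm above soil, and test compounds were applied directly into the paddy water, which was held at that depth throughout. After 13 to 15 d in a greenhouse, injury was rated visually against untreated controls on a 0–100 scale (0 no effect, 100 complete control).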
# corn (Zea mays) = experiment: Test A postemergence, corn; settings: 0 to 100 scale (0 no effect, 100 complete control), approx. 10 d
# How it was run: (§2)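 Compounds were applied before emergence to seeded pots of loam and sand, or after emergence to plants 2 to 10 cm tall in the same soil. Injury was rated visually about 10 d later relative to untreated controls, where 100 indicates complete control.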
# kochia (Kochia scoparia) [2] = experiment: Test A postemergence, kochia; settings: 0 to 100 scale (0 no effect, 100 complete control), approx. 10 d
# How it was run: as §2
# [3] = tested on: ryegrass, Italian (Italian ryegrass, Lolium multiflorum); experiment: Test A preemergence, Italian ryegrass; settings: 0 to 100 scale (0 no effect, 100 complete control), approx. 10 d
# How it was run: (§3)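 Scores are visual injury ratings, 0 (no effect) to 100 (complete control), taken about 10 d post-spray against untreated pots. The preemergence treatment was a directed soil spray on seeded loam–sand mix.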
# [4] = tested on: sedge, umbrella (small-flower umbrella sedge, Cyperus difformis); experiment: Test B flooded paddy test, umbrella sedge; settings: Flood, 250 g ai/ha; applied to paddy water at 2-leaf stage; visual rating after 13 to 15 d; scale 0 to 100, 0 is no effect, 100 is complete control
# How it was run: as §1
# [5] = tested on: wheat (Triticum aestivum); experiment: Test A postemergence, wheat; settings: 0 to 100 scale (0 no effect, 100 complete control), approx. 10 d
# How it was run: as §2
# kochia (Kochia scoparia) [6] = experiment: Test A preemergence, kochia; settings: 0 to 100 scale (0 no effect, 100 complete control), approx. 10 d
# How it was run: as §3
# [7] = tested on: galium (catchweed bedstraw, Galium aparine); experiment: Test A postemergence, galium; settings: 0 to 100 scale (0 no effect, 100 complete control), approx. 10 d
# How it was run: as §2
# [8] = tested on: foxtail, green (green foxtail, Setaria viridis); experiment: Test A preemergence, green foxtail; settings: 0 to 100 scale (0 no effect, 100 complete control), approx. 10 d
# How it was run: as §3
# [9] = tested on: foxtail, green (green foxtail, Setaria viridis); experiment: Test A postemergence, green foxtail; settings: 0 to 100 scale (0 no effect, 100 complete control), approx. 10 d
# How it was run: as §2
# rice (Oryza sativa) = experiment: Test B flooded paddy test, rice; settings: Flood, 250 g ai/ha; applied to paddy water at 2-leaf stage; visual rating after 13 to 15 d; scale 0 to 100, 0 is no effect, 100 is complete control
# How it was run: as §1
# [10] = tested on: ragweed (common ragweed, Ambrosia elatior); experiment: Test A preemergence, ragweed; settings: 0 to 100 scale (0 no effect, 100 complete control), approx. 10 d
# How it was run: as §3
# [11] = tested on: ryegrass, Italian (Italian ryegrass, Lolium multiflorum); experiment: Test A postemergence, Italian ryegrass; settings: 0 to 100 scale (0 no effect, 100 complete control), approx. 10 d
# How it was run: as §2
# [12] = tested on: ragweed (common ragweed, Ambrosia elatior); experiment: Test A postemergence, ragweed; settings: 0 to 100 scale (0 no effect, 100 complete control), approx. 10 d
# How it was run: as §2
# [13] = tested on: ducksalad (Heteranthera limosa); experiment: Test B flooded paddy test, ducksalad; settings: Flood, 250 g ai/ha; applied to paddy water at 2-leaf stage; visual rating after 13 to 15 d; scale 0 to 100, 0 is no effect, 100 is complete control
# How it was run: as §1
# [14] = tested on: pigweed (Amaranthus retroflexus); experiment: Test A postemergence, pigweed; settings: 0 to 100 scale (0 no effect, 100 complete control), approx. 10 d
# How it was run: as §2
# [15] = tested on: barnyardgrass (Echinochloa crus-galli); experiment: Test A preemergence, barnyardgrass; settings: 0 to 100 scale (0 no effect, 100 complete control), approx. 10 d
# How it was run: as §3
# [16] = tested on: blackgrass (Alopecurus myosuroides); experiment: Test A postemergence, blackgrass; settings: 0 to 100 scale (0 no effect, 100 complete control), approx. 10 d
# How it was run: as §2
# [17] = tested on: pigweed (Amaranthus retroflexus); experiment: Test A preemergence, pigweed; settings: 0 to 100 scale (0 no effect, 100 complete control), approx. 10 d
# How it was run: as §3
# [18] = tested on: barnyardgrass (Echinochloa crus-galli); experiment: Test A postemergence, barnyardgrass; settings: 0 to 100 scale (0 no effect, 100 complete control), approx. 10 d
# How it was run: as §2
substance,measurement,setting,value
"(3S,4R)-3-acetyl-N-(2,3-difluorophenyl)-1-methyl-2-oxo-4-[4-(trifluoromethyl)phenyl]-3-pyrrolidinecarboxamide [Compound 3]","Plant response rating, Barnyardgrass",[1],45
same,"Plant response rating, Corn",corn (Zea mays); 31 g ai/ha,10
same,"Plant response rating, Corn",corn (Zea mays); 125 g ai/ha,80
same,"Plant response rating, Kochia",kochia (Kochia scoparia) [2]; 31 g ai/ha,0
same,"Plant response rating, Kochia",kochia (Kochia scoparia) [2]; 125 g ai/ha,60
same,"Plant response rating, Ryegrass, Italian",[3]; 31 g ai/ha,20
same,"Plant response rating, Ryegrass, Italian",[3]; 125 g ai/ha,40
same,"Plant response rating, Sedge, Umbrella",[4],0
same,"Plant response rating, Wheat",[5]; 31 g ai/ha,0
same,"Plant response rating, Wheat",[5]; 125 g ai/ha,40
same,"Plant response rating, Kochia",kochia (Kochia scoparia) [6]; 31 g ai/ha,0
same,"Plant response rating, Kochia",kochia (Kochia scoparia) [6]; 125 g ai/ha,50
same,"Plant response rating, Galium",[7]; 31 g ai/ha,40
same,"Plant response rating, Galium",[7]; 125 g ai/ha,50
same,"Plant response rating, Foxtail, Green",[8]; 31 g ai/ha,90
same,"Plant response rating, Foxtail, Green",[8]; 125 g ai/ha,90
same,"Plant response rating, Foxtail, Green",[9]; 31 g ai/ha,0
same,"Plant response rating, Foxtail, Green",[9]; 125 g ai/ha,60
same,"Plant response rating, Rice",rice (Oryza sativa),10
same,"Plant response rating, Ragweed",[10]; 31 g ai/ha,0
same,"Plant response rating, Ragweed",[10]; 125 g ai/ha,20
same,"Plant response rating, Ryegrass, Italian",[11]; 31 g ai/ha,40
same,"Plant response rating, Ryegrass, Italian",[11]; 125 g ai/ha,50
same,"Plant response rating, Ragweed",[12]; 31 g ai/ha,0
same,"Plant response rating, Ragweed",[12]; 125 g ai/ha,40
same,"Plant response rating, Ducksalad",[13],80
same,"Plant response rating, Pigweed",[14]; 31 g ai/ha,40
same,"Plant response rating, Pigweed",[14]; 125 g ai/ha,60
same,"Plant response rating, Barnyardgrass",[15]; 31 g ai/ha,80
same,"Plant response rating, Barnyardgrass",[15]; 125 g ai/ha,90
same,"Plant response rating, Blackgrass",[16]; 31 g ai/ha,20
same,"Plant response rating, Blackgrass",[16]; 125 g ai/ha,30
same,"Plant response rating, Pigweed",[17]; 31 g ai/ha,20
same,"Plant response rating, Pigweed",[17]; 125 g ai/ha,100
same,"Plant response rating, Barnyardgrass",[18]; 31 g ai/ha,40
same,"Plant response rating, Barnyardgrass",[18]; 125 g ai/ha,70
